Reference: patent US8772341B2, “Compositions for the treatment of hoof diseases” (DeLaval Holding AB, priority 2006, dated 2014)

How the values were obtained:
[1] = tested on: Bovine Digital Dermatitis (BDD) associated treponeme strains; assay: Treponema study, broth microdilution germicidal susceptibility (MIC/MBC); format: cell-based; details: for MBC (minimal bactericidal concentration): average over six Treponema cultures
Source text: In an experiment carried out at the University of Liverpool, Liverpool, U.K., Treponema species were isolated from dairy farms and six cultures were used to measure the minimum inhibitory concentration (MIC, the lowest concentration which results in maintenance or reduction of inoculum's viability) and minimal bactericidal concentration (MBC, the lowest concentration which results in biocidal activity) of several commonly used germicides.
Six Bovine Digital Dermatitis (BDD) associated treponeme strains (Table 1) were used to investigate in vitro susceptibility of BDD associated Treponema (Evans, N. J.; Brown, J.; Demirkan, I.; Carter, S. D.; Hart, C. A. “In vitro susceptibility of Bovine Digital Dermatitis associated Treponema to antimicrobial agents” to be submitted to Antimicrob. Agents Chemother. To be submitted for publication September 2007). The strains included two isolates from each of three distinct phylogroups corresponding to three proposed new taxa, Treponema medium subsp. bovis, Treponema bovis and Treponema pedis (Evans, N. J.; Brown, J.; Demirkan, I. Murray, R. D.; Vink, D.; Blowey, R. W.; Hart, C. A.; Carter, S. D. “Tremponema medium subsp. bovis subsp. nov., Treponema bovis sp. nov. and Treponema pedis sp. nov.; novel spirochaetes associated with Bovine Digital Dermatitis.” International Journal of Systematic and Evolutionary Microbiology. Submitted for publication Oct. 18, 2006). […]
To determine MIC values, absorbance at 540 nm was measured for the microplate wells using a Multiskan microtitre plate reader (Thermo Scientific, Hampshire, U.K.). Measurements were recorded before and after incubation at 36° C. under anaerobic conditions—three days for T. pedis strains and four days for T. bovis and T. medium subsp. bovis strains. […] Cell growth was determined by comparison of the absorbance measurement immediately before and after incubation. […]
Microplates were incubated for a further four days at 36° C. under anaerobic conditions. Growth was assessed using phase contrast microscopy. […]

[2] = tested on: red blood cells; assay: in vitro irritation test on isolated red blood cells (haemolysis, denaturation); format: cell-based, calf; details: 18% solution
Protocol: (§1) The germicidal activity of a large number of ingredients has been tested for the ability to kill Escherichia coli and Staphylococcus aureus in mixtures that have been contaminated with 10% and 20% manure. E. coli and S. aureus were chosen as representative bacteria for screening purposes. Solutions of the mixtures with 10% manure and bacteria were prepared, and the reduction in the concentration of bacteria was determined after 30 seconds and again after 5 minutes. In addition, the formulas were evaluated for skin irritation based on in vitro test data. The testing method used was that of Wolfgang J. W. Pape, Udo Hoppe: In vitro Methods for the Assessment of Primary Local Effects of Topically Applied Preparations. Skin Pharmacol. (1991), 4: 205-212, which is incorporated herein by reference.
Irritation tests were performed to determine whether or not the disclosed compositions would be mild enough for topical application. These tests involved two measurements made on fresh calf blood, where red blood cells were isolated by adding 50 mL of sodium citrate buffer (17.03 g trisodium citrate+8.45 g citric acid diluted to 1 L with bacteria-free DI water) to every 450 mL of blood, then repetitively washing with sodium citrate buffer and centrifuging to remove white blood cells and plasma.
Compositions disclosed herein were introduced into a container containing the isolated red blood cells and values for Haemolysis (H50); a Denaturation Index value (DI); and a Lysis/Denaturation Ratio (L/D) were determined using methods disclosed by Wolfgang J. W. Pape, Udo Hoppe: In vitro Methods for the Assessment of Primary Local Effects of Topically Applied Preparations. Skin Pharmacol. (1991), 4: 205-212. The haemolysis—or tendency of the red blood cells to rupture when in contact with the test product—was measured by the half-haemolysis value H50. The denaturation of protein caused by the test product was measured by the denaturation index (DI). The overall irritation value for a product was determined by the ratio of the H50/DI which is referred to as the lysis/denaturation quotient. The overall irritation score is given by the lysis/denaturation value which is calculated by the equation: L/D=H50 (measured in ppm)/DI (measured in %).
The higher the ppm value for H50 the less irritating the product. A crude scale is H50>500 ppm (non-irritant); 120-500 (slight irritant), 30-120 (moderate irritant), 10-30 (irritant) and 0-10 (strong irritant).
The L/D ratio is the primary value used to determine irritation. […]

[3] = tested on: E. coli (ATCC 11229); assay: modified AOAC sanitizer test (germicidal activity, with or without manure); format: cell-based, Escherichia coli
Protocol: as §1
(§2) Experiments were performed to test the germicidal properties of the disclosed compositions using a modified version of the AOAC sanitizer test (Association of Official Analytical Chemists. 1990. Official Methods of Analysis, Pages 138-140 in Germicidal and Detergent Sanitizing Action of Disinfectants 960.09, Vol. I. 15th ed. AOAC, Arlington, Va.). According to this procedure, manure was collected from a dairy farm, dispensed into flasks and autoclaved at 121° C. and 17 psi for 30 minutes. Manure samples were then stored in a freezer until needed. When needed, manure was thawed at room temperature then dispensed into 250 mL Erlenmeyer flasks in amounts appropriate for the challenge desired (10 g for 10% manure, 20 g for 20% manure, etc.). The flasks with manure, and any empty flasks needed, were capped with aluminum foil and autoclaved at 134° C. and ˜20 psi for 4 min.
(§3) Freeze-dried pellets of E. coli (ATCC 11229) and S. aureus (ATCC 6538) were hydrated, placed in test tubes containing nutrient agar and incubated at 37° C. for 24 hours. Sterile buffer (0.0003 M phosphate adjusted to pH 6.6) was used to dilute and transfer the bacteria to additional nutrient agar tubes, which were incubated for another 24 hours. S. aureus was then diluted with buffer and transferred to nutrient agar in French bottles, and E. coli was diluted and transferred to fresh nutrient agar tubes. Both types of bacteria were incubated at 37° C. for 72 hours. E. coli was then diluted and transferred to nutrient agar in French bottles. Sterile buffer and glass beads were added to the S. aureus French bottles and the solution was vacuum filtered through a #2 filter. […] After 24 hours, the E. coli suspension was collected in the same manner.
(§4) Germicide sample solutions were prepared and dispensed into the flasks containing manure. For tests without manure, 99 mL of germicide were added to an empty, sterile, 250 mL flask. […]

[4] = tested on: S. aureus (ATCC 6538); assay: as above; format: cell-based, Staphylococcus aureus
Protocol: as §1, §2, §3, §4

[5] = tested on: hoof diseases (heel erosion, interdigital dermatitis, foot rot, white line abscess, digital dermatitis); assay: field trial of hoof bath at a commercial dairy farm; format: in vivo, cows; details: for Digital Dermatitis, number of hooves / Foot Rot, number of hooves / Heel Erosion, number of hooves / Interdigital Dermatitis, number of hooves / Total number of hoof problems / White Line Abscess, number of hooves: 178 hooves
Protocol: An 18% solution of N,N-bis(3-aminopropyl)dodecylamine with 0.17% FD&C Red #40 and 0.28% FD&C Yellow #5 was tested in a field trial at a commercial dairy farm. The product was diluted at a rate of 1+66 V/V and used to fill a hoof bath trough that the cows walked through as they left the milking parlor. A fresh hoof bath solution was prepared every day and the cows walked through the solution once each day of the week. For a month before the trial began no hoof bath treatment was applied to the cows. At the start of the trial a complete evaluation of the front and hind hooves was performed by a certified hoof trimmer, along with a veterinarian, who recorded the diseases observed in each hoof. The evaluation of the hooves was again performed after the hoof bath had been used for two months. All hooves that were present for both evaluations, and were not were not treated with antibiotics and wrapped at the first evaluation, were included in the data. […] The trial included 178 hooves.

[6] = 18% solution diluted 1+33 with potable water, 5 minutes exposure, 20% manure
[7] = 18% solution diluted 1+66 with potable water (0.27%), 30 seconds exposure, 20% manure
[8] = 18% solution diluted 1+66 with potable water (0.27%), 5 minutes exposure, no manure
[9] = 18% solution diluted 1+180 with potable water (0.1%), 5 minutes exposure, 10% manure
[10] = Primary Evaluation (start of trial, before hoof bath)
[11] = Secondary Evaluation after two months of daily hoof bath, 1+66 V/V

C=O [formaldehyde]
average MEC ([1]; six Treponema cultures): 0.0094 % w/w

CCCCCCCCCCCCN(CCCN)CCCN [N,N-bis(3-aminopropyl)dodecylamine]
skin irritation (conclusion from L/D) [2]: does not cause skin irritation
combined L/D value (lysis/denaturation ratio) ([2]; L/D = H50/DI): 7×10^3
DI value (denaturation index) ([2]; calf red blood cells): 2.6%
H50 value (half-haemolysis) ([2]; calf red blood cells): 18000 ppm
log reduction [3, 6]: > 8.0 log
log reduction [3, 7]: > 8 log
log reduction [3, 8]: > 8 log
log reduction [3, 9]: > 7.97 log
log reduction [4, 6]: > 7.94 log
log reduction [4, 7]: 4.8 log
log reduction [4, 8]: > 8 log
log reduction [4, 9]: > 7.94 log
MBC (minimal bactericidal concentration) [1]: 0.00051 % w/w
Digital Dermatitis, number of hooves [5, 10]: 33
Foot Rot, number of hooves [5, 10]: 0
Heel Erosion, number of hooves [5, 10]: 43
Interdigital Dermatitis, number of hooves [5, 10]: 2
Total number of hoof problems [5, 10]: 78
White Line Abscess, number of hooves [5, 10]: 0
Digital Dermatitis, number of hooves [5, 11]: 25
Foot Rot, number of hooves [5, 11]: 0
Interdigital Dermatitis, number of hooves [5, 11]: 0
Total number of hoof problems [5, 11]: 51
White Line Abscess, number of hooves [5, 11]: 1
Heel Erosion, number of hooves ([5]; Secondary Evaluation after two months of daily hoof bath, 18% solution with dyes diluted 1+66 V/V): 25
reduction in the total number of hoof problems ([5]; after two months of hoof bath treatment): ~35%
hooves with digital dermatitis at the beginning of the trial that were cured ([5]; after two months of treatment): Forty
hooves not infected at the beginning that did not develop any signs of digital dermatitis ([5]; by the end of the two month treatment): ninety

O=S(=O)([O-])[O-].[Cu+2] [copper sulfate]
MBC (minimal bactericidal concentration) [1]: 0.0054 % w/w
